According to patent US20210361224A1, “BIOLOGICAL GAS (VOCs) MEASURMENT DEVICE” (National University Corporation Tokyo Medical and Dental …, priority 2017, published 2021):
Like-named read-outs stand apart in the source and are kept apart here.

How the values were obtained:
[1] = compared with ethanol in exhaled breath, test subject ingested 0.4 g/kg of body weight of ethanol by drinking
[2] = palm of hand; 0.4 g of ethanol per kilogram of body weight orally ingested; measured 10 to 40 minutes after drinking

For `CCO` [ethanol], which “delay until the amount of ethanol contained in skin gas peaks” value ([1]; collector attached to back of hand) is on record?
Its value is “approximately 23 minutes”.

And the “delay until the amount of ethanol contained in skin gas peaks” value ([1]; collector attached to wrist on the palm side)?
The value was “approximately 18 minutes”.

What about the “time after drinking at which concentration of ethanol released from the skin reached a peak value” [2] of the same compound?
The value was 32 min.
